Values of other authors in PMC12304352, “Optimization of a GMP-compliant automated one-pot synthesis of Al[^18F]F-NOTA-Ubiquicidin29 − 41 for bacterial infection imaging by PET/CT” (EJNMMI Radiopharmacy and Chemistry, 2025).

System: methicillin-resistant S. aureus (MRSA)
Conditions: injected intravenously, ref Brouwer et al. [2006]
From the text: Ubiquicidin (UBI), a cationic antimicrobial peptide fragment, has emerged as a promising agent for infection imaging due to its selective binding to anionic bacterial membranes (Ferro-Flores et al. [2016]). […] Another UBI-derived peptide (UBI29 − 41) radiolabeled with technetium-99m, was used as a probe for real-time, whole- ...

For “UBI31 − 38: synthetic ubiquicidin derivative composed of only eight amino acids (KVDENGKI; Small ribosomal subunit protein eS31; UniProt P62979 107-114, looked up, fragment)”, the “Efficacy against MRSA in a mouse infection model” value is given as “somewhat reduced activity”.
